# Where “and” joins values, the source holds several entries; their conditions need not be identical. Equal values may be shown once. Where a name gives a salt, the structure may show the parent alone. Read-outs that look alike come from different tables or passages of the source.
# Legend:
# [1] = racemate; cited from earlier work
# [2] = format: in vitro ADME, human
# Description: The effect of selected formulations on levormeloxifene fumarate permeation through human skin in vitro is illustrated in the following way:
# Franz glass diffusion cells were used (Franz, T. J.: Curr. Probl. Dermatol., 1978: 7; 58-68).
# Experiments were performed on abdominal or breast skin obtained after surgery and kept at -20° C. for not more than ten months. After initial thawing the skin was squeezed between a metal and a glass plate, and after refreezing the skin was dermatomed to a thickness of 0.5 mm.
# The human skin membrane was enclosed in the glass chambers with ground faces (diffusing area 0.64 cm^2). A clamp was used to keep the chambers together. […]
# After the skin was allowed to equilibrate at 32° C. for one hour, the capacitance was measured with a Lutron DM 6023 Capacitance meter. […]
# The donor solutions were made of selected vehicles which were saturated with levormeloxifene fumarate, cf. […] The concentrations of levormeloxifene fumarate in the donor solutions were determined previously by a HPLC method. […]
# At appropriate intervals, samples were taken from the receptor phase and replaced by fresh receptor solution in order to keep sink-conditions. The amount of levormeloxifene fumarate in the receptor solution was determined using liquid scintillatory counting. […]
# The mean value and the standard deviation were calculated of the flux J of the replicates. […]
# [3] = Concentration of levormeloxifene fumarate in saturated donor solutions (HPLC); format: physicochemical; settings: stirred 24 hours, room temperature; for solubility thermodynamic at 24 h: read-out: Conc. unmarked (donor phase saturated)
# Description: The donor solutions were made of selected vehicles which were saturated with levormeloxifene fumarate, cf. Table 1. To prepare the donor solutions, levormeloxifene fumarate was added to the vehicles, and after stirring at room temperature for 24 hours, the donor solution was saturated with levormeloxifene fumarate and filtered through a Millipore filter 0.22 μm. Thereafter ^14 C-levormeloxifene was added to 1.00 ml of the donor solution to give a final concentration of ^14 C-levormeloxifene at 3 mg/ml (1,3 mCi/mi). Thereafter the donor solution was applied on the epidermal side of the skin, and the experiment was performed with occlusion. The concentrations of levormeloxifene fumarate in the donor solutions were determined previously by a HPLC method.
# [4] = background statement, cited from earlier work
# [5] = background statement; cited from earlier work
smiles,measurement,setting,value
COc1ccc2c(c1)OC(C)(C)[C@@H](c1ccccc1)[C@@H]2c1ccc(OCCN2CCCC2)cc1 (relative stereo) [Centchroman],cholesterol lowering,[1],potent cholesterol lowering pharmaceutical agent expressed by a significant decrease of the serum concentrations
"COc1ccc2c(c1)OC(C)(C)[C@@H](c1ccccc1)[C@@H]2c1ccc(OCCN2CCCC2)cc1 [levormeloxifene fumarate, (-)-3R,4R-trans-7-methoxy-2,2-dimethyl-3-phenyl-4-{4-[2-(pyrrolidin-1-yl)ethoxy]phenyl}chromane, hydrogen fumarate]",Dosage per day,[2],0.56 mg
same,Flux ± S.D.,[2]; pH 4,0.495 ± 0.125 mg × cm^-2 × h^-1
same,solubility thermodynamic at 24 h,"[3]; acetic acid 0.05m (b4), pH 4, vehicle B4 (acetic acid 0.05M, pH 4)",325 µg/mL
same,solubility thermodynamic at 24 h,"[3]; b4 + 2% 2-pyrrolidon, vehicle B4 + 2% 2-pyrrolidon",420 µg/mL
same,solubility thermodynamic at 24 h,"[3]; b4 + 20% ethanol, organic solvent or mixture, vehicle B4 + 20% ethanol",1400 µg/mL
same,solubility thermodynamic at 24 h,"[3]; b4 + 30% ethanol, organic solvent or mixture, vehicle B4 + 30% ethanol",3100 µg/mL
same,solubility thermodynamic at 24 h,"[3]; pg + 10% oleic acid, organic solvent or mixture, vehicle PG + 10% oleic acid",116000 µg/mL
same,Conc. unmarked (donor phase saturated),"[3]; vehicle B4 (acetic acid 0.05M, pH 4), 1440 min",320 µg/mL and 325 µg/mL
COc1ccc2c(c1)OC(C)(C)[C@@H](c1ccccc1)[C@@H]2c1ccc(OCCN2CCCC2)cc1 [hydrochloride salt],behaviour in aqueous suspension,[4],forms a solid gel in aqueous suspension
same,solubility in water,[4],quite heavy soluble in water
same,hygroscopicity,[5],hygroscopic
"COc1ccc2c(c1)OC(C)(C)[C@@H](c1ccccc1)[C@@H]2c1ccc(OCCN2CCCC2)cc1 [levormeloxifene, (-)-3R,4R-trans-7-methoxy-2,2-dimethyl-3-phenyl-4-{4-[2-(pyrrolidin-1-yl)ethoxy]phenyl}chromane]",solubility in water,[4]; listed as free base,very poor solubility in water

# Source: patent publication US5935987A, “Transdermal delivery of 3,4-diarylchromans” (priority 1996, dated 1999)
